In ChEMBL document CHEMBL4765340, “Novel potent antiplatelet thrombotic agent derived from biguanide for ischemic stroke” (Eur J Med Chem, 2020):
The source made the active and inactive calls. The rule behind the calls is not given here.

Assays:
[1] = Inhibition of thrombin-stimulated human platelet aggregation measured after 3 hrs by scanning electron microscopy; format: functional, tissue-based
[2] = Inhibition of thrombin-stimulated human platelet aggregation by measuring aggregation at 0.50 mM measured after 1 hrs by scanning electron microscopy; format: functional; design: scale not given: the % may be the effect or the level left; conditions: dose 0.5 mM
[3] = Inhibition of thrombin-stimulated human platelet aggregation by measuring aggregation at 0.50 mM measured after 2 hrs by scanning electron microscopy; format: functional; design: scale not given: the % may be the effect or the level left; conditions: dose 0.5 mM
[4] = Inhibition of thrombin-stimulated human platelet aggregation by measuring aggregation at 0.50 mM measured after 4 hrs by scanning electron microscopy; format: functional; design: scale not given: the % may be the effect or the level left; conditions: dose 0.5 mM
[5] = test system: Platelet; assay: Cytotoxicity against human platelet assessed as extracellular LDH levels changes at 1 mM incubated for 3 hrs; format: cell-based; conditions: 1000 µM
[6] = Suppression of P-selectin expression in thrombin-stimulated human platelets by measuring CD62P positive platelets at 0.01 mM after 3 hrs by flow cytometry analysis (reference value: 78.2%); format: functional; conditions: Platelet
[7] = Suppression of P-selectin expression in thrombin-stimulated human platelets by measuring CD62P positive platelets at 0.05 mM after 3 hrs by flow cytometry analysis (reference value: 78.2%); format: functional; conditions: Platelet
[8] = Suppression of P-selectin expression in thrombin-stimulated human platelets by measuring CD62P positive platelets at 1 mM after 3 hrs by flow cytometry analysis (reference value: 78.2%); format: functional; conditions: Platelet
[9] = test system: Mus musculus; assay: Antithrombotic activity in calcein-labelled platelet-mediated ferric chloride-induced arterial injury thrombosis C57BL/6J mouse model assessed as thrombus weight at 50 mg/kg, po administrated twice a day measured upto 7 days (reference value: 3.3 +/- 0.3 mg); format: functional; conditions: time day <=7
[10] = test system: Mus musculus; assay: Antithrombotic activity in calcein-labelled platelet-mediated ferric chloride-induced arterial injury thrombosis C57BL/6J mouse model assessed as thrombus weight at 100 mg/kg, po administrated twice a day measured upto 7 days (reference value: 3.3 +/- 0.3 mg); format: functional; conditions: time day <=7
[11] = test system: Mus musculus; assay: Antithrombotic activity in calcein-labelled platelet-mediated ferric chloride-induced arterial injury thrombosis C57BL/6J mouse model assessed as thrombus length at 100 mg/kg, po administrated twice a day measured upto 7 days (reference value: 4.4 +/- 0.4 mm); format: functional; conditions: time day <=7
[12] = test system: Mus musculus; assay: Antithrombotic activity in calcein-labelled platelet-mediated ferric chloride-induced arterial injury thrombosis C57BL/6J mouse model assessed as thrombus length at 200 mg/kg, po administrated twice a day measured upto 7 days (reference value: 4.4 +/- 0.4 mm); format: functional; conditions: time day <=7
[13] = test system: Mus musculus; assay: Antithrombotic activity in calcein-labelled platelet-mediated ferric chloride-induced arterial injury thrombosis C57BL/6J mouse model assessed as thrombus length at 300 mg/kg, po administrated twice a day measured upto 7 days (reference value: 4.4 +/- 0.4 mm); format: functional; conditions: time day <=7
[14] = test system: Platelet; assay: Antiplatelet activity in thrombin-stimulated human platelet assessed as reduction in the clot retraction preincubated at 0.5 mM with fibrinogen for 3 hrs followed by added thrombin measured after 0.5 hrs (reference value: 80.3 =/- 5.5%); format: functional; design: scale not given: the % may be the effect or the level left; conditions: time 3.5 hrs
[15] = test system: Mus musculus; assay: Antithrombotic activity in transient focal cerebral ischemic mouse model occlusion induced 60 mins of the right middle cerebral artery followed by reperfussion 23 hrs assessed as reduction of brain infract volume at 200 mg/kg, po twice daily for 7 days by TTC staining based […] analysis (reference value: 46 +/- 5%); format: functional; design: scale not given: the % may be the effect or the level left; conditions: time 7 day
[16] = Toxicity against C57BL/6J mouse assessed as heart morphology at 200 mg/kg twice a day measured after 60 days; format: organism-based; conditions: in vivo, 1440 h, time 60 day
[17] = Toxicity against C57BL/6J mouse assessed as liver morphology at 200 mg/kg twice a day measured after 60 days; format: organism-based; conditions: in vivo, 1440 h, time 60 day
[18] = Toxicity against C57BL/6J mouse assessed as spleen morphology at 200 mg/kg twice a day measured after 60 days; format: organism-based; conditions: in vivo, 1440 h, time 60 day
[19] = Toxicity against C57BL/6J mouse assessed as lungs morphology at 200 mg/kg twice a day measured after 60 days; format: organism-based; conditions: in vivo, 1440 h, time 60 day
[20] = Toxicity against C57BL/6J mouse assessed as kidney morphology at 200 mg/kg twice a day measured after 60 days; format: organism-based; conditions: in vivo, 1440 h, time 60 day
[21] = Toxicity against C57BL/6J mouse assessed as pancreas morphology at 200 mg/kg twice a day measured after 60 days; format: organism-based; conditions: in vivo, 1440 h, time 60 day
[22] = Toxicity against diabetic C57BL/6J mouse assessed hypoglycemic activity at 200 mg/kg twice a day measured after 60 days relative to parent compound; format: organism-based; conditions: in vivo, 1440 h, time 60 day
[23] = Toxicity in calcein-labelled platelet-mediated ferric chloride-induced arterial injury thrombosis po dosed C57BL/6J mouse model assessed as change in prothrombin time treated twice a day measured upto 7 days; format: organism-based; conditions: in vivo, 168 h, time <=7 day
[24] = Toxicity in calcein-labelled platelet-mediated ferric chloride-induced arterial injury thrombosis po dosed C57BL/6J mouse model assessed as change in activated partial thromboplastin time treated twice a day measured upto 7 days; format: organism-based; conditions: in vivo, 168 h, time <=7 day
[25] = Toxicity in calcein-labelled platelet-mediated ferric chloride-induced arterial injury thrombosis po dosed C57BL/6J mouse model assessed as change in fibrinogen treated twice a day measured upto 7 days; format: organism-based; conditions: in vivo, 168 h, time <=7 day
[26] = test system: Mus musculus; assay: Antithrombotic activity in calcein-labelled platelet-mediated ferric chloride-induced arterial injury thrombosis C57BL/6J mouse model assessed as average time to occlusive thrombosis at 50 mg/kg, po administrated twice a day measured upto 7 days (reference value: 7.9 +/- 0.7 min); format: functional; conditions: time day <=7
[27] = test system: Mus musculus; assay: Antithrombotic activity in calcein-labelled platelet-mediated ferric chloride-induced arterial injury thrombosis C57BL/6J mouse model assessed as average time to occlusive thrombosis at 200 mg/kg, po administrated twice a day measured upto 7 days (reference value: 7.9 +/- 0.7 min); format: functional; conditions: time day <=7
[28] = test system: Platelet; assay: Inhibition of thrombin-stimulated human platelet aggregation measured after 3 hrs by scanning electron microscopy with 0.01 to 1 U/ml varying concentration of thrombin by lumi-aggregometer; format: functional, tissue-based
[29] = test system: Mus musculus; assay: Antithrombotic activity in transient focal cerebral ischemic mouse model occlusion induced 60 mins of the right middle cerebral artery followed by reperfussion 23 hrs assessed as decrease in blood viscosity at 200 mg/kg, po twice daily for 7 days; format: functional, organism-based; conditions: time 7.0 day
[30] = test system: Mus musculus; assay: Antithrombotic activity in transient focal cerebral ischemic mouse model occlusion induced 60 mins of the right middle cerebral artery followed by reperfussion 23 hrs assessed as improve in damaged neural function at 200 mg/kg, po twice daily for 7 days; format: functional, organism-based; conditions: time 7.0 day
[31] = Toxicity in C57BL/6J mouse assessed as change in calcium level at 200 mg/kg twice daily for 60 days relative to control; format: organism-based; conditions: in vivo, 1440 h, time 60 day
[32] = Toxicity in C57BL/6J mouse assessed as change in bicarbonate level at 200 mg/kg twice daily for 60 days relative to control; format: organism-based; conditions: in vivo, 1440 h, time 60 day
[33] = Toxicity in C57BL/6J mouse assessed as change in creatinine level at 200 mg/kg twice daily for 60 days relative to control; format: organism-based; conditions: in vivo, 1440 h, time 60 day
[34] = Toxicity in C57BL/6J mouse assessed as change in glucose level at 200 mg/kg twice daily for 60 days relative to control; format: organism-based; conditions: in vivo, 1440 h, time 60 day
[35] = Toxicity in C57BL/6J mouse assessed as change in platelet count at 200 mg/kg twice daily for 60 days relative to control; format: organism-based; conditions: in vivo, 1440 h, time 60 day
[36] = Toxicity in C57BL/6J mouse assessed as change in thrombo-cytocrit at 200 mg/kg twice daily for 60 days relative to control; format: organism-based; conditions: in vivo, 1440 h, time 60 day
[37] = Toxicity in C57BL/6J mouse assessed as change in immature platelet fraction at 200 mg/kg twice daily for 60 days relative to control; format: organism-based; conditions: in vivo, 1440 h, time 60 day

SMILES: CN(C)C(=N)NC(=N)NS(=O)(=O)C(F)(F)F
- IC50 [1]: 150 µM
- Activity [2]: 60%
- Activity [3]: 35%
- Activity [4]: 19.5%
- Activity [5]: Non-Toxic
- level, % of control at 10 µM [6]: 72.8%
- level, % of control at 50 µM [7]: 58.9%
- level, % of control at 1000 µM [8]: 46.6%
- Activity [9]: 2.7 mg
- Activity [10]: 1.1 mg
- Activity [11]: 2.8 mm
- Activity [12]: 1.5 mm
- Activity [13]: 1.4 mm
- Activity [14]: 28.4%
- Activity [15]: 5%
- Activity [16]: Non-Toxic
- Activity [17]: Non-Toxic
- Activity [18]: Non-Toxic
- Activity [19]: Non-Toxic
- Activity [20]: Non-Toxic
- Activity [21]: Non-Toxic
- Activity [22]: Non-Toxic
- Activity [23]: Non-Toxic
- Activity [24]: Non-Toxic
- Activity [25]: Non-Toxic
- Time [26]: 10.1 min
- Time [27]: 21.2 min
- inhibition [28]: Active
- Activity [29]: Active
- Activity [30]: Active
- Activity [31]: Non-Toxic
- Activity [32]: Non-Toxic
- Activity [33]: Non-Toxic
- Activity [34]: Non-Toxic
- Activity [35]: Non-Toxic
- Activity [36]: Non-Toxic
- Activity [37]: Non-Toxic
